Data as given in article PMC5218480 (PLoS ONE, 2017).

Test system: MV-4-11 cells
Test: Gene expression microarray analysis (Affymetrix PrimeView) and GSEA
Assay type: cell-based, human
Design: RFU PODN (11730768_x_at) / Fold change /veh PODN (11730768_x_at) / RFU LINC00158 (11744669_a_at) / Fold change /veh LINC00158 (11744669_a_at) / RFU DUSP10 (11751237_a_at) / Fold change /veh DUSP10 (11751237_a_at) / RFU ID3 (11757404_x_at) / Fold change /veh ID3 (11757404_x_at) / RFU PLEKHG5 (11737974_s_at) / Fold change /veh PLEKHG5 (11737974_s_at) / RFU LRRC4B (11730491_at) / Fold change /veh LRRC4B (11730491_at) / RFU GIMAP4 (11747438_a_at) / Fold change /veh GIMAP4 (11747438_a_at) / RFU KRT8 (11758183_x_at) / Fold change /veh KRT8 (11758183_x_at) / RFU CNN1 (11734310_a_at) / Fold change /veh CNN1 (11734310_a_at) / RFU VPS37D (11726825_at) / Fold change /veh VPS37D (11726825_at) / RFU C10orf10 (11716522_x_at) / Fold change /veh C10orf10 (11716522_x_at) / RFU KIR2DL2 /// KIR2DL4 /// KIR2DL5A /// KIR2DL5B /// KIR2DS1 /// KIR2DS2 /// KIR2DS3 /// KIR2DS4 /// KIR3DL3 /// KIR3DL3 /// KIR3DS1 (11738374_at) / Fold change /veh KIR2DL2 /// KIR2DL4 /// KIR2DL5A /// KIR2DL5B /// KIR2DS1 /// KIR2DS2 /// KIR2DS3 /// KIR2DS4 /// KIR3DL3 /// KIR3DL3 /// KIR3DS1 (11738374_at) / RFU C1QL1 (11718748_at) / Fold change /veh C1QL1 (11718748_at) / RFU TMPRSS4 (11747572_a_at) / Fold change /veh TMPRSS4 (11747572_a_at) / RFU HAMP (11756126_x_at) / Fold change /veh HAMP (11756126_x_at) / RFU RNFT2 (11725882_a_at) / Fold change /veh RNFT2 (11725882_a_at) / RFU NR4A2 (11747474_a_at) / Fold change /veh NR4A2 (11747474_a_at) / RFU ABCC12 (11746883_a_at) / Fold change /veh ABCC12 (11746883_a_at) / RFU TMEM136 (11760407_x_at) / Fold change /veh TMEM136 (11760407_x_at) / RFU CLDN22 /// WWC2 (11732394_at) / Fold change /veh CLDN22 /// WWC2 (11732394_at) / RFU HLA-DPB1 (11760878_x_at) / Fold change /veh HLA-DPB1 (11760878_x_at) / RFU SPINT1 (11716480_a_at) / Fold change /veh SPINT1 (11716480_a_at) / RFU GAP43 (11754022_s_at) / Fold change /veh GAP43 (11754022_s_at) / RFU A4GNT (11735810_at) / Fold change /veh A4GNT (11735810_at) / RFU PRB3 (11715151_x_at) / Fold change /veh PRB3 (11715151_x_at) / RFU TUBB4B (11761932_at) / Fold change /veh TUBB4B (11761932_at) / RFU CAPN14 (11732068_a_at) / Fold change /veh CAPN14 (11732068_a_at) / RFU TMCC2 (11721928_a_at) / Fold change /veh TMCC2 (11721928_a_at) / RFU IRGQ (11745062_a_at) / Fold change /veh IRGQ (11745062_a_at) / RFU FAM174B (11720279_a_at) / Fold change /veh FAM174B (11720279_a_at) / RFU TMPRSS4 (11748680_a_at) / Fold change /veh TMPRSS4 (11748680_a_at) / RFU FAM212B (11763350_a_at) / Fold change /veh FAM212B (11763350_a_at) / RFU PLEKHG5 (11743358_a_at) / Fold change /veh PLEKHG5 (11743358_a_at) / RFU ZSCAN30 (11745921_a_at) / Fold change /veh ZSCAN30 (11745921_a_at) / RFU CMKLR1 (11741424_a_at) / Fold change /veh CMKLR1 (11741424_a_at) / RFU LOC101060620 /// MAPK8IP1 (11723275_at) / Fold change /veh LOC101060620 /// MAPK8IP1 (11723275_at) / RFU SPTSSB (11747773_x_at) / Fold change /veh SPTSSB (11747773_x_at) / RFU PRSS12 (11739890_at) / Fold change /veh PRSS12 (11739890_at) / RFU BIN1 (11741810_x_at) / Fold change /veh BIN1 (11741810_x_at) / RFU WNT11 (11732464_a_at) / Fold change /veh WNT11 (11732464_a_at) / RFU C10orf10 (11716521_a_at) / Fold change /veh C10orf10 (11716521_a_at) / RFU C5orf56 (11738089_at) / Fold change /veh C5orf56 (11738089_at) / RFU CYB561 (11721691_x_at) / Fold change /veh CYB561 (11721691_x_at) / RFU ANKRD19P (11752326_a_at) / Fold change /veh ANKRD19P (11752326_a_at) / RFU OR2T12 /// OR2T33 /// OR2T8 (11738714_s_at) / Fold change /veh OR2T12 /// OR2T33 /// OR2T8 (11738714_s_at) / RFU VCAN (11748164_a_at) / Fold change /veh VCAN (11748164_a_at) / RFU JSRP1 (11732532_at) / Fold change /veh JSRP1 (11732532_at) / RFU KRTAP10-11 (11738290_x_at) / Fold change /veh KRTAP10-11 (11738290_x_at) / RFU MYO3A (11730013_a_at) / Fold change /veh MYO3A (11730013_a_at) / RFU EBF3 (11725865_a_at) / Fold change /veh EBF3 (11725865_a_at) / RFU CAMK2N1 (11719241_x_at) / Fold change /veh CAMK2N1 (11719241_x_at) / RFU C5orf56 (11738088_a_at) / Fold change /veh C5orf56 (11738088_a_at) / RFU OLFML3 (11715873_a_at) / Fold change /veh OLFML3 (11715873_a_at) / RFU LOC100653217 /// NTM (11731650_a_at) / Fold change /veh LOC100653217 /// NTM (11731650_a_at) / RFU MAPK11 (11762145_a_at) / Fold change /veh MAPK11 (11762145_a_at) / RFU FIZ1 (11724087_x_at) / Fold change /veh FIZ1 (11724087_x_at) / RFU OASL (11726364_x_at) / Fold change /veh OASL (11726364_x_at) / RFU SOX15 (11748057_x_at) / Fold change /veh SOX15 (11748057_x_at) / RFU CD79A (11719716_a_at) / Fold change /veh CD79A (11719716_a_at) / RFU HIST1H1D (11736915_at) / Fold change /veh HIST1H1D (11736915_at) / RFU CASKIN2 (11723855_a_at) / Fold change /veh CASKIN2 (11723855_a_at) / RFU LOC730098 (11760151_x_at) / Fold change /veh LOC730098 (11760151_x_at) / RFU OR4N2 (11742367_at) / Fold change /veh OR4N2 (11742367_at) / RFU PRRT2 (11749266_a_at) / Fold change /veh PRRT2 (11749266_a_at) / RFU SNX32 (11753110_a_at) / Fold change /veh SNX32 (11753110_a_at) / RFU CDHR5 (11726645_a_at) / Fold change /veh CDHR5 (11726645_a_at) / RFU RCAN1 (11760418_a_at) / Fold change /veh RCAN1 (11760418_a_at) / RFU FAM167A (11723789_a_at) / Fold change /veh FAM167A (11723789_a_at) / RFU FAM26E (11764081_at) / Fold change /veh FAM26E (11764081_at) / RFU ISYNA1 (11749810_s_at) / Fold change /veh ISYNA1 (11749810_s_at) / RFU ACY1 (11761880_at) / Fold change /veh ACY1 (11761880_at) / RFU 11764098_at / Fold change /veh 11764098_at / RFU SAMD14 (11745864_x_at) / Fold change /veh SAMD14 (11745864_x_at) / RFU NPB (11741838_a_at) / Fold change /veh NPB (11741838_a_at) / RFU TMPRSS6 (11731388_a_at) / Fold change /veh TMPRSS6 (11731388_a_at) / RFU KRTAP10-2 (11738614_at) / Fold change /veh KRTAP10-2 (11738614_at) / RFU ARHGAP8 /// PRR5-ARHGAP8 (11727945_x_at) / Fold change /veh ARHGAP8 /// PRR5-ARHGAP8 (11727945_x_at) / RFU KRTAP5-7 /// NADSYN1 (11734609_at) / Fold change /veh KRTAP5-7 /// NADSYN1 (11734609_at) / RFU RASL12 (11751679_a_at) / Fold change /veh RASL12 (11751679_a_at) / RFU CDKN2B (11736163_a_at) / Fold change /veh CDKN2B (11736163_a_at) / RFU PRF1 (11729649_at) / Fold change /veh PRF1 (11729649_at) / RFU, ZNF638 /// ZNF638-IT1 / Fold change vs veh, ZNF638 /// ZNF638-IT1 / RFU, PANK3 / Fold change vs veh, PANK3 / RFU, SH3YL1 / Fold change vs veh, SH3YL1 / RFU, ZEB2 / Fold change vs veh, ZEB2 / RFU, NRIP1 / Fold change vs veh, NRIP1 / RFU, PTTG1IP / Fold change vs veh, PTTG1IP / RFU, CAPN2 / Fold change vs veh, CAPN2 / RFU, MED14 / Fold change vs veh, MED14 / RFU, SNORA58 / Fold change vs veh, SNORA58 / RFU, C1orf63 / Fold change vs veh, C1orf63 / RFU, LRRFIP1 / Fold change vs veh, LRRFIP1 / RFU, NDUFAF7 / Fold change vs veh, NDUFAF7 / RFU, SLC12A2 / Fold change vs veh, SLC12A2 / RFU, IBTK / Fold change vs veh, IBTK / RFU, ESF1 / Fold change vs veh, ESF1 / Fold change vs veh, TMEM50B / RFU, TAOK1 / Fold change vs veh, TAOK1 / RFU, ACBD3 / Fold change vs veh, ACBD3 / RFU, TMA16 / Fold change vs veh, TMA16 / RFU, RWDD3 / Fold change vs veh, RWDD3 / RFU, BCAT1 / Fold change vs veh, BCAT1 / RFU, EDEM3 / Fold change vs veh, EDEM3 / RFU, TMEM33 / Fold change vs veh, TMEM33 / RFU, WDR75 / Fold change vs veh, WDR75 / RFU, AHCTF1 / Fold change vs veh, AHCTF1 / RFU, TFRC / Fold change vs veh, TFRC / RFU, ZDHHC17 / Fold change vs veh, ZDHHC17 / RFU, NOM1 / Fold change vs veh, NOM1 / RFU, ARL8B / Fold change vs veh, ARL8B / RFU, ZBTB11 / Fold change vs veh, ZBTB11 / RFU, TAMM41 / Fold change vs veh, TAMM41 / RFU, KIAA1704 /// LOC100996395 / Fold change vs veh, KIAA1704 /// LOC100996395 / RFU, ING1 / Fold change vs veh, ING1 / RFU, TRMT61B / Fold change vs veh, TRMT61B / RFU, FUBP3 / Fold change vs veh, FUBP3 / RFU, TP53 / Fold change vs veh, TP53 / RFU, TNKS2 / Fold change vs veh, TNKS2 / RFU, ZFP14 / Fold change vs veh, ZFP14 / RFU, ACTR2 / Fold change vs veh, ACTR2 / RFU, PPP3R1 / Fold change vs veh, PPP3R1 / RFU, PIK3R1 / Fold change vs veh, PIK3R1 / RFU, HNRNPA1 / Fold change vs veh, HNRNPA1 / RFU, RNF170 / Fold change vs veh, RNF170 / RFU, ZNF28 / Fold change vs veh, ZNF28 / RFU, RNGTT / Fold change vs veh, RNGTT / RFU, OGT / Fold change vs veh, OGT / RFU, BRD1 / Fold change vs veh, BRD1 / RFU, MARS / Fold change vs veh, MARS / RFU, ZNF655 / Fold change vs veh, ZNF655 / RFU, FAHD1 / Fold change vs veh, FAHD1 / RFU, BDP1 / Fold change vs veh, BDP1 / RFU, LRRCC1 / Fold change vs veh, LRRCC1 / RFU, ARID1A / Fold change vs veh, ARID1A / RFU, ZNF146 / Fold change vs veh, ZNF146 / RFU, ZNF330 / Fold change vs veh, ZNF330 / RFU, GPN3 / Fold change vs veh, GPN3 / RFU, C9orf123 / Fold change vs veh, C9orf123 / RFU, N4BP2L2 / Fold change vs veh, N4BP2L2 / RFU, ARFIP1 / Fold change vs veh, ARFIP1 / RFU, FAM179B / Fold change vs veh, FAM179B / RFU, BCL10 / Fold change vs veh, BCL10 / RFU, UHRF1BP1L / Fold change vs veh, UHRF1BP1L / RFU, BET1 / Fold change vs veh, BET1 / RFU, CNOT2 / Fold change vs veh, CNOT2 / RFU, ZNF268 / Fold change vs veh, ZNF268 / Fold change vs veh, ZNF507 / RFU, DGCR2 / Fold change vs veh, DGCR2 / RFU, WDSUB1 / Fold change vs veh, WDSUB1 / Fold change vs veh, HSP90B1 /// MIR3652 / RFU, ADSS / Fold change vs veh, ADSS / RFU, GK / Fold change vs veh, GK / RFU, ZNF148 / Fold change vs veh, ZNF148 / RFU, TAF9 / Fold change vs veh, TAF9 / RFU, SLC1A5 / Fold change vs veh, SLC1A5 / RFU, SLMO2 / Fold change vs veh, SLMO2 / RFU, ABCC4 / Fold change vs veh, ABCC4 / RFU, LOC101060439 /// RAP1B / Fold change vs veh, LOC101060439 /// RAP1B / RFU, RFX7 / Fold change vs veh, RFX7 / RFU, GTPBP10 / Fold change vs veh, GTPBP10 / RFU, CNEP1R1 / Fold change vs veh, CNEP1R1 / RFU, BIVM-ERCC5 /// ERCC5 / Fold change vs veh, BIVM-ERCC5 /// ERCC5 / RFU, ILF3 / Fold change vs veh, ILF3 / RFU 11762660_at / Fold change /veh 11762660_at / RFU VCAN (11757783_s_at) / Fold change /veh VCAN (11757783_s_at) / RFU DDX43 (11728927_at) / Fold change /veh DDX43 (11728927_at) / RFU KRT8 (11758188_x_at) / Fold change /veh KRT8 (11758188_x_at) / RFU NKD1 (11759106_at) / Fold change /veh NKD1 (11759106_at) / RFU SRD5A1 (11742802_a_at) / Fold change /veh SRD5A1 (11742802_a_at) / RFU TPSAB1 /// TPSB2 (11721975_s_at) / Fold change /veh TPSAB1 /// TPSB2 (11721975_s_at) / RFU GSTM3 (11746129_a_at) / Fold change /veh GSTM3 (11746129_a_at) / RFU IL23R (11737362_x_at) / Fold change /veh IL23R (11737362_x_at) / RFU TMEM51 (11727254_a_at) / Fold change /veh TMEM51 (11727254_a_at) / RFU PIWIL2 (11732686_x_at) / Fold change /veh PIWIL2 (11732686_x_at) / RFU ORM1 (11744905_x_at) / Fold change /veh ORM1 (11744905_x_at) / RFU CCDC152 (11743942_at) / Fold change /veh CCDC152 (11743942_at) / RFU ECM1 (11717891_a_at) / Fold change /veh ECM1 (11717891_a_at) / RFU IL23R (11748794_a_at) / Fold change /veh IL23R (11748794_a_at) / RFU TNFAIP8L3 (11732012_x_at) / Fold change /veh TNFAIP8L3 (11732012_x_at) / RFU MBOAT4 (11741988_at) / Fold change /veh MBOAT4 (11741988_at) / RFU 11764193_at / Fold change /veh 11764193_at / RFU TMEM53 (11763286_at) / Fold change /veh TMEM53 (11763286_at) / RFU MAGEB2 (11727129_at) / Fold change /veh MAGEB2 (11727129_at) / RFU TMEM200A (11744735_a_at) / Fold change /veh TMEM200A (11744735_a_at) / RFU CCDC152 (11751479_a_at) / Fold change /veh CCDC152 (11751479_a_at) / RFU FAM211A (11726209_a_at) / Fold change /veh FAM211A (11726209_a_at) / RFU RGS16 (11746705_a_at) / Fold change /veh RGS16 (11746705_a_at) / RFU VCAN (11755009_s_at) / Fold change /veh VCAN (11755009_s_at) / RFU RHOB (11743442_s_at) / Fold change /veh RHOB (11743442_s_at) / RFU RGS16 (11720943_a_at) / Fold change /veh RGS16 (11720943_a_at) / RFU RGS16 (11720944_at) / Fold change /veh RGS16 (11720944_at) / RFU, VPS4B / Fold change vs veh, VPS4B / RFU, CREB1 / Fold change vs veh, CREB1 / RFU, DNAJC13 / Fold change vs veh, DNAJC13 / RFU, GNAQ / Fold change vs veh, GNAQ / RFU, CDK5R1 / Fold change vs veh, CDK5R1 / RFU, ZRANB3 / Fold change vs veh, ZRANB3 / RFU, CUL4A / Fold change vs veh, CUL4A / RFU, CCNY / Fold change vs veh, CCNY / RFU, UFL1 / Fold change vs veh, UFL1 / RFU, COG3 / Fold change vs veh, COG3 / RFU, DIAPH2 / Fold change vs veh, DIAPH2 / RFU, SKA2 / Fold change vs veh, SKA2 / RFU, AFF3 / Fold change vs veh, AFF3 / RFU, LMF1 / Fold change vs veh, LMF1 / RFU, IPO11 / Fold change vs veh, IPO11 / RFU, DFFB / Fold change vs veh, DFFB / RFU, FOXP1 / Fold change vs veh, FOXP1 / RFU, CARD8 / Fold change vs veh, CARD8 / RFU, STRN3 / Fold change vs veh, STRN3 / RFU, ADK / Fold change vs veh, ADK / RFU, RASSF2 / Fold change vs veh, RASSF2 / RFU, WIPF1 / Fold change vs veh, WIPF1 / RFU, LARP1B / Fold change vs veh, LARP1B / RFU, RASA1 / Fold change vs veh, RASA1 / RFU, RB1 / Fold change vs veh, RB1 / RFU, PPFIA1 / Fold change vs veh, PPFIA1 / RFU, MAT2A / Fold change vs veh, MAT2A / RFU, CCT5 / Fold change vs veh, CCT5 / RFU, WDR92 / Fold change vs veh, WDR92 / RFU, CUX1 / Fold change vs veh, CUX1 / RFU, TTC7A / Fold change vs veh, TTC7A / RFU, TMEM135 / Fold change vs veh, TMEM135 / RFU, DEPTOR / Fold change vs veh, DEPTOR / RFU, CPM / Fold change vs veh, CPM / RFU, DNAJB6 / Fold change vs veh, DNAJB6 / RFU, CACNA2D3 / Fold change vs veh, CACNA2D3 / RFU, DTX4 / Fold change vs veh, DTX4 / RFU, TFCP2 / Fold change vs veh, TFCP2 / RFU, GMCL1 /// GMCL1P1 / Fold change vs veh, GMCL1 /// GMCL1P1 / RFU, AEBP2 / Fold change vs veh, AEBP2 / RFU, SNHG1 /// SNORD22 /// SNORD25 /// SNORD26 /// SNORD27 /// SNORD28 /// SNORD29 /// SNORD31 / Fold change vs veh, SNHG1 /// SNORD22 /// SNORD25 /// SNORD26 /// SNORD27 /// SNORD28 /// SNORD29 /// SNORD31 / Fold change (Aza/veh), C12orf56 (ProbeSet 11735607_a_at) / Fold change (ACY-1035/veh), C12orf56 (ProbeSet 11735607_a_at) / Fold change (Aza/veh), FGFR1OP (ProbeSet 11751329_s_at) / Fold change (ACY-1035/veh), FGFR1OP (ProbeSet 11751329_s_at) / Fold change (Aza/veh), VPS36 (ProbeSet 11739960_a_at) / Fold change (ACY-1035/veh), VPS36 (ProbeSet 11739960_a_at) / RFU SYPL1 (11715823_x_at) / Fold change /veh SYPL1 (11715823_x_at) / RFU IGFBP7 (11715501_s_at) / Fold change /veh IGFBP7 (11715501_s_at) / RFU REEP3 (11722064_at) / Fold change /veh REEP3 (11722064_at) / RFU IGLL1 (11728026_x_at) / Fold change /veh IGLL1 (11728026_x_at): dose or concentration left out as unconfirmed
Conditions: MV-4-11 cells, 48 hours

Nc1ccc(-c2cccs2)cc1NC(=O)c1ccc2c(c1)cc(C1CC1)n2CCN1CCOCC1 [ACY-1035]
Fold change /veh PLEKHG5 (11737974_s_at): 1.09
